Measurements reported in US20240018161A1, “MODULATORS OF CYSTIC FIBROSIS TRANSMEMBRANE CONDUCTANCE REGULATOR” (VERTEX PHARMACEUTICALS INCORPORATED, priority 2020, published 2024).
Where two headings read alike, the source gives them in different places.

Biological target: CFTR-mediated chloride transport in human intestinal epithelial enteroid cells (Homo sapiens, UniProt P13569)
Test: Membrane potential dye, Enteroid Assay A
Assay type: cell-based
Conditions: for EC50: read-out: Ent. A EC50
Description: Base medium (ADF+++) consisted of Advanced DMEM/Ham's F12, 2 mM Glutamax, 10 mM HEPES, […] penicillin/streptomycin.
Bath 1 Buffer consisted of 1 mM MgCl2, 160 mM NaCl, 4.5 mM KCl, 10 mM HEPES, 10 mM Glucose, 2 mM CaCl2.
Chloride Free Buffer consisted of 1 mM Magnesium Gluconate, 2 mM Calcium Gluconate, 4.5 mM Potassium Gluconate, 160 mM Sodium Gluconate, 10 mM HEPES, 10 mM Glucose.
Bath1 Dye Solution consisted of Bath 1 Buffer, 0.04% Pluronic F127, 20 μM Methyl Oxonol, 30 μM CaCCinh-A01, 30 μM Chicago Sky Blue.
Chloride Free Dye Solution consisted of Chloride Free Buffer, 0.04% Pluronic F127, 20 μM Methyl Oxonol, 30 μM CaCCinh-A01, 30 μM Chicago Sky Blue.
3. Enteroid Cell Harvesting and Seeding
Cells were recovered in cell recovery solution, collected by centrifugation at 650 rpm for 5 min at 4° C., resuspended in TryPLE and incubated for 5 min at 37° C. Cells were then collected by centrifugation at 650 rpm for 5 min at 4° C. and resuspended in IEMM containing 10 μM ROCK inhibitor (RI).
4. Membrane Potential Dye, Enteroid Assay A
Briefly, cells were washed 5 times in Bath 1 Buffer. Bath 1 Dye Solution was added, and the cells were incubated for 25 min at room temperature. Following dye incubation, cells were washed 3 times in Chloride Free Dye Solution. Chloride transport was initiated by addition of Chloride Free Dye Stimulation Solution and the fluorescence signal was read for 15 min. […] Chloride transport was then expressed as a percentage of the chloride transport following treatment with 3 μM N-[(6-amino-2-pyridyl)sulfonyl]-6-(3-fluoro-5-isobutoxy-phenyl)-2-[(4S)-2,2,4-trimethylpyrrolidin-1-yl]pyridine-3-carboxamide, 3 μM (R)-1-(2,2-difluorobenzo[d][1,3]dioxol-5-yl)-N-(1-(2,3-dihydroxypropyl)-6-fluoro-2-(1-hydroxy-2-methylpropan-2-yl)-1H-indol-5-yl)cyclopropanecarboxamide and 300 nM acute N-[2,4-bis(1,1-dimethylethyl)-5-hydroxyphenyl]-1,4-dihydro-4-oxoquinoline-3-carboxamide triple combination control (% Activity).

[1] = enteroid cells incubated with test compound 18-24 hours, acute 10 μM forskolin and 300 nM N-[2,4-bis(1,1-dimethylethyl)-5-hydroxyphenyl]-1,4-dihydro-4-oxoquinoline-3-carboxamide
[2] = percentage of chloride transport of triple combination control (3 μM N-[(6-amino-2-pyridyl)sulfonyl]-6-(3-fluoro-5-isobutoxy-phenyl)-2-[(4S)-2,2,4-trimethylpyrrolidin-1-yl]pyridine-3-carboxamide based)

CFTR-mediated chloride transport in human intestinal epithelial enteroid cells, sequence (P13569 with tags, fused parts or gaps DEL508-508): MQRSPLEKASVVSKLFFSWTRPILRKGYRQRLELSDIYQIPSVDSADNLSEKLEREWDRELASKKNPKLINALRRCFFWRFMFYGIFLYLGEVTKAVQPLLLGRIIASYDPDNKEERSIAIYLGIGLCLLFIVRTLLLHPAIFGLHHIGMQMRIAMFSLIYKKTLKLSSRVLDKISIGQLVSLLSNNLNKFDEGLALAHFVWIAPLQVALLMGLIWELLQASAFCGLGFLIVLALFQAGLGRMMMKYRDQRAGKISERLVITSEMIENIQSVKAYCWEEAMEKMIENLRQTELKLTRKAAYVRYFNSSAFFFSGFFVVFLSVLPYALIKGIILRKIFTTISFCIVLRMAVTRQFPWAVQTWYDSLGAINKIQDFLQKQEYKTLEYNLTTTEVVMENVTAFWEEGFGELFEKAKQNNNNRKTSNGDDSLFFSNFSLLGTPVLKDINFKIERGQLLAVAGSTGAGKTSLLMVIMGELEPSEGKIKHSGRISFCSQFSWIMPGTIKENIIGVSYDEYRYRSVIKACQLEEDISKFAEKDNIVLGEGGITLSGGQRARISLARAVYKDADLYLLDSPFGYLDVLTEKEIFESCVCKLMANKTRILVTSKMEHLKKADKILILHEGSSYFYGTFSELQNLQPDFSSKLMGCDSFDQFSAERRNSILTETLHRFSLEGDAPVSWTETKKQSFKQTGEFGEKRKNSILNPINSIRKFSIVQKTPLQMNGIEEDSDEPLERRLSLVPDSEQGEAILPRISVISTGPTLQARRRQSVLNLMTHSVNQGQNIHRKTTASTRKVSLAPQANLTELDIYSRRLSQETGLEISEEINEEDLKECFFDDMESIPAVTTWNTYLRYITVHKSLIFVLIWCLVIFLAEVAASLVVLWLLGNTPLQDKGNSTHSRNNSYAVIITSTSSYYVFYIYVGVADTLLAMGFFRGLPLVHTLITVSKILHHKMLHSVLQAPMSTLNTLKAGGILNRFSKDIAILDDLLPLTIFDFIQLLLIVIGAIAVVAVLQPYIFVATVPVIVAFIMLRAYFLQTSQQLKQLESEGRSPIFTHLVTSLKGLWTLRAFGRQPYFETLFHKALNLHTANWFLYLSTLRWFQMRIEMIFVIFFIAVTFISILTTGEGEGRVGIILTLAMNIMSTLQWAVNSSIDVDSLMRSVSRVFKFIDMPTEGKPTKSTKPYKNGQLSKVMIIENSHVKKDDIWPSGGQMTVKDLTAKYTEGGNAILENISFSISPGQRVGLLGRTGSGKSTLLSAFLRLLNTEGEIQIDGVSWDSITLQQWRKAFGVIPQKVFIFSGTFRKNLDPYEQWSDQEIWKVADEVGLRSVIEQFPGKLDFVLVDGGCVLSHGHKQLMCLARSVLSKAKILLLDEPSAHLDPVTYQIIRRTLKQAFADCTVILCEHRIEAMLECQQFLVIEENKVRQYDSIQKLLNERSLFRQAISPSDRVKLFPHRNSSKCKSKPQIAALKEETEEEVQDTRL

SMILES | EC50 [1] | Ent. A Max Activity (%) (Enteroid Assay A) | EC50 (Enteroid Assay A) | Ent. A Max Activity (%) [2]
Cc1cccc(C)c1-c1cc2nc(n1)NS(=O)(=O)c1cccc(c1)C(=O)N1CC3CCCN(C)C3[C@H](C1)O2 (single isomer, unassigned) [Compound 199, 12-(2,6-dimethylphenyl)-18-methyl-15-oxa-8λ^6-thia-1,9,11,18,25-pentaazapentacyclo[14.7.1.13,7.110,14.017,22]hexacosa-3,5,7(26),10(25),11,13-hexaene-2,8,8-trione] | < 1 µM |  |  | +++ (+++ is >60%)
Cc1cccc(C)c1-c1cc2nc(n1)NS(=O)(=O)c1cccc(c1)C(=O)N1CC3CCCN(C)C3[C@@H](C1)O2 (single isomer, unassigned) [Compound 200, 12-(2,6-dimethylphenyl)-18-methyl-15-oxa-8λ^6-thia-1,9,11,18,25-pentaazapentacyclo[14.7.1.13,7.110,14.017,22]hexacosa-3,5,7(26),10(25),11,13-hexaene-2,8,8-trione] |  |  |  | + (+ is <300%)
Cc1cccc(C)c1-c1cc2nc(n1)NS(=O)(=O)c1cccc(c1)C(=O)N1CC(O2)C2CCCN(C)C2C1 (single isomer, unassigned) [Compound 201, 12-(2,6-Dimethylphenyl)-21-methyl-15-oxa-8λ^6-thia-1,9,11,21,25-pentaazapentacyclo[14.7.1.13,7.110,14.017,22]hexacosa-3,5,7(26),10(25),11,13-hexaene-2,8,8-trione] |  | ++ (++ is 30-60%) | 3 to 30 µM | 
Cc1cccc(C)c1-c1cc2nc(n1)NS(=O)(=O)c1cccc(c1)C(=O)N1Cc3ccccc3C[C@H](C1)O2 (single isomer, unassigned) [Compound 216, 12-(2,6-dimethylphenyl)-15-oxa-8λ^6-thia-1,9,11,26-tetraazapentacyclo[14.8.1.13,7.110,14.018,23]heptacosa-3(27),4,6,10,12,14(26),18,20,22-nonaene-2,8,8-trione] | 1 to 3 µM |  |  | +++ (+++ is >60%)
Cc1cccc(C)c1-c1cc2nc(n1)NS(=O)(=O)c1cccc(c1)C(=O)N1CCc3ccccc3C(C1)O2 (single isomer, unassigned) [Compound 221, 12-(2,6-dimethylphenyl)-15-oxa-8λ^6-thia-1,9,11,26-tetraazapentacyclo[14.8.1.13,7.110,14.017,22]heptacosa-3(27),4,6,10(26),11,13,17,19,21-nonaene-2,8,8-trione] |  |  | < 1 µM | 
Cc1cccc(C)c1-c1cc2nc(n1)NS(=O)(=O)c1cccc(c1)C(=O)N1CC(CC(c3ccccc3)C1)O2 (single isomer, unassigned) [Compound 223, 18-(2,6-dimethylphenyl)-5-phenyl-2-oxa-14λ^6-thia-7,15,17,20-tetraazatetracyclo[14.3.1.13,7.19,13]docosa-1(19),9(21),10,12,16(20),17-hexaene-8,14,14-trione] | < 1 µM |  |  | ++ (++ is 30-60%)
Cc1cccc(C)c1-c1cc2nc(n1)NS(=O)(=O)c1cccc(c1)C(=O)N1CC(CC(c3ccccc3)C1)O2 (single isomer, unassigned) [Compound 224, 18-(2,6-dimethylphenyl)-5-phenyl-2-oxa-14λ^6-thia-7,15,17,20-tetraazatetracyclo[14.3.1.13,7.19,13]docosa-1(19),9(21),10,12,16(20),17-hexaene-8,14,14-trione] | < 1 µM |  |  | ++ (++ is 30-60%)
Cc1cccc(C)c1-c1cc2nc(n1)NS(=O)(=O)c1cccc(c1)C(=O)N1CC(CCC1c1ccccc1)O2 (single isomer, unassigned) [Compound 225, 18-(2,6-dimethylphenyl)-6-phenyl-2-oxa-14λ^6-thia-7,15,17,20-tetraazatetracyclo[14.3.1.13,7.19,13]docosa-1(19),9(21),10,12,16(20),17-hexaene-8,14,14-trione] | < 1 µM |  |  | ++ (++ is 30-60%)
Cc1cccc(C)c1-c1cc2nc(n1)NS(=O)(=O)c1cccc(c1)C(=O)N1CC(CCC1c1ccccc1)O2 (single isomer, unassigned) [Compound 226, 18-(2,6-Dimethylphenyl)-6-phenyl-2-oxa-14λ^6-thia-7,15,17,20-tetraazatetracyclo[14.3.1.13,7.19,13]docosa-1(19),9(21),10,12,16(20),17-hexaene-8,14,14-trione] | < 1 µM |  |  | ++ (++ is 30-60%)
Cc1cccc(C)c1-c1cc2nc(n1)NS(=N)(=O)c1cccc(c1)C(=O)N1CCN(CCC(C)(C)C)C[C@H](C1)O2 (single isomer, unassigned) [Compound 244, 18-(3,3-dimethylbutyl)-12-(2,6-dimethylphenyl)-8-imino-15-oxa-8λ^6-thia-1,9,11,18,22-pentaazatetracyclo[14.4.1.13,7.110,14]tricosa-3,5,7(23),10,12,14(22)-hexaene-2,8-dione] |  | + (+ is <30%) |  | 

The next lines start with results.

EC50 [1] | Ent. A Max Activity (%) (Enteroid Assay A) | EC50 (Enteroid Assay A) | SMILES | Ent. A Max Activity (%) [2]
 | + (+ is <30%) |  | Cc1cccc(C)c1-c1cc2nc(n1)NS(=O)(=O)c1cccc(c1)C(=O)N1CC(O2)C2CCCN(C)C2C1 (single isomer, unassigned) [Compound 202, 12-(2,6-Dimethylphenyl)-21-methyl-15-oxa-8λ^6-thia-1,9,11,21,25-pentaazapentacyclo[14.7.1.13,7.110,14.017,22]hexacosa-3,5,7(26),10(25),11,13-hexaene-2,8,8-trione] | 
 | ++ (++ is 30-60%) | 3 to 30 µM | Cc1cccc(C)c1-c1cc2nc(n1)NS(=O)(=O)c1cccc(c1)C(=O)N1CC3C(CCCN3C)[C@@H](C1)O2 (single isomer, unassigned) [Compound 203, 12-(2,6-dimethylphenyl)-21-methyl-15-oxa-8λ^6-thia-1,9,11,21,25-pentaazapentacyclo[14.7.1.13,7.110,14.017,22]hexacosa-3,5,7(26),10(25),11,13-hexaene-2,8,8-trione] | 
 |  | 1 to 3 µM | Cc1cccc(C)c1-c1cc2nc(n1)NS(=O)(=O)c1cccc(c1)C(=O)N1CC3C(CCCN3C)[C@H](C1)O2 (single isomer, unassigned) [Compound 204, 12-(2,6-dimethylphenyl)-21-methyl-15-oxa-8λ^6-thia-1,9,11,21,25-pentaazapentacyclo[14.7.1.13,7.110,14.017,22]hexacosa-3,5,7(26),10(25),11,13-hexaene-2,8,8-trione] | 
< 1 µM |  |  | Cc1cccc(C)c1-c1cc2nc(n1)NS(=O)(=O)c1cccc(c1)C(=O)N1CCCC(O2)C1CC(C)C (single isomer, unassigned) [Compound 230, 18-(2,6-Dimethylphenyl)-22-(2-methylpropyl)-2-oxa-14λ^6-thia-7,15,17,20-tetraazatetracyclo[14.3.1.13,7.19,13]docosa-1(20),9(21),10,12,16,18-hexaene-8,14,14-trione] | +++ (+++ is >60%)
< 1 µM |  |  | Cc1cccc(C)c1-c1cc2nc(n1)NS(=O)(=O)c1cccc(c1)C(=O)N1CCCC(O2)C1CC(C)C (single isomer, unassigned) [Compound 231, 18-(2,6-Dimethylphenyl)-22-(2-methylpropyl)-2-oxa-14λ^6-thia-7,15,17,20-tetraazatetracyclo[14.3.1.13,7.19,13]docosa-1(20),9(21),10,12,16,18-hexaene-8,14,14-trione] | +++ (+++ is >60%)
 |  | < 1 µM | Cc1cccc(C)c1-c1cc2nc(n1)NS(=O)(=O)c1cccc(c1)C(=O)N1CC(C)(C)CC(O2)C1CC(C)C (single isomer, unassigned) [Compound 232, 18-(2,6-Dimethylphenyl)-5,5-dimethyl-22-(2-methylpropyl)-2-oxa-14λ^6-thia-7,15,17,20-tetraazatetracyclo[14.3.1.13,7.19,13]docosa-1(20),9(21),10,12,16,18-hexaene-8,14,14-trione] | 
 |  | < 1 µM | Cc1cccc(C)c1-c1cc2nc(n1)NS(=O)(=O)c1cccc(c1)C(=O)N1CC(C)(C)CC(O2)C1CC(C)C (single isomer, unassigned) [Compound 233, 18-(2,6-dimethylphenyl)-5,5-dimethyl-22-(2-methylpropyl)-2-oxa-14λ^6-thia-7,15,17,20-tetraazatetracyclo[14.3.1.13,7.19,13]docosa-1(20),9(21),10,12,16,18-hexaene-8,14,14-trione] | 
